Here are results for 20 molecules from BindingDB's records for doi:10.1016/j.bmcl.2012.12.028 (Pfizer, 2013).

This experiment addresses T1, P-selectin (Homo sapiens, UniProt P16109).
T1 sequence (P16109 whole entry): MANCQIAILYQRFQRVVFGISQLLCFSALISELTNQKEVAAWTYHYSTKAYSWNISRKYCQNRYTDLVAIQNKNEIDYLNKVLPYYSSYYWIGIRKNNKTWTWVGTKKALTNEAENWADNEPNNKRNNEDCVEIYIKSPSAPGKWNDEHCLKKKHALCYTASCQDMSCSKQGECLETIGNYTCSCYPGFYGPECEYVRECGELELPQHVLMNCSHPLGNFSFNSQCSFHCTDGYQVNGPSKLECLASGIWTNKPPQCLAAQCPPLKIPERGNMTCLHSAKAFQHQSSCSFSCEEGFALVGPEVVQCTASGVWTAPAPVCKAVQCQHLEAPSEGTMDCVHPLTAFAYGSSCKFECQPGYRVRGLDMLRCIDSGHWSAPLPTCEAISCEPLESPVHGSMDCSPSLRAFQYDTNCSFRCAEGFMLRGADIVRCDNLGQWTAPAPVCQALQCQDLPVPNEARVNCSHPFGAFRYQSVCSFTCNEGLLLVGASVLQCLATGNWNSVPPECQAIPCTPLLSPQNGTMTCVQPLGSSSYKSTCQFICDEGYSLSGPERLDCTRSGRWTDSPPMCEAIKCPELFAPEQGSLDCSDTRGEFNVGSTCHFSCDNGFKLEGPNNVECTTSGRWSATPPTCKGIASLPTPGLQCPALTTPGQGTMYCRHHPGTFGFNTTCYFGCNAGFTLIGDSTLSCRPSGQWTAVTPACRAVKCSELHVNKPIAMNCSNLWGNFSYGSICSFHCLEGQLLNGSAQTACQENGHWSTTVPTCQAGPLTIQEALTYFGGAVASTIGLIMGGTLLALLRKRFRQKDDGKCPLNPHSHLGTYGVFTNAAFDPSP
Briefly: Inhibition of P-selectin aggregation in platelet surface (unknown origin).

The IC50 is the point on the concentration scale where inhibition reaches its midpoint. Read a low IC50 as greater potency in that assay. Regarding `COc1ccccc1CNc1ncc(C(=O)NCCCCN(C)C)c(NC2CCCC2)n1`, the half-maximal inhibitory concentration (IC50) was 7100 nM.
The molecule `CN1CCC(NC(=O)c2cnc(Nc3cc(Cl)cc(Cl)c3)nc2N[C@H]2CCCCNC2=O)CC1` displayed an IC50 of 430 nM.
With `O[C@@H]1COC[C@H]1Nc1nc(Nc2cc(Cl)cc(Cl)c2)ncc1Br` the figure was 3900 nM; with `Cc1cc(-c2cnc(Nc3cc(Cl)cc(Cl)c3)nc2NC2CCNCC2)on1`, 1600 nM.
In the case of `CC[C@@H](CO)Nc1nc(Nc2cc(Cl)cc(Cl)c2)ncc1C(=O)NC1CCN(C)CC1`, the IC50 is 580 nM. This IC50 is about 2.8-fold lower than that of the molecule before.
`CN1CCC(NC(=O)c2cnc(NCc3cc(Cl)ccc3Cl)nc2NC2CCNCC2)CC1`: the IC50 is over 80000 nM.
`COc1ccccc1CNc1ncc(C(=O)NCCNC(C)=O)c(NC2CCCC2)n1`: the IC50 was determined as 6600 nM.
To `CN1CCC(NC(=O)c2cnc(NCc3cc(Cl)ccc3Cl)nc2NC2CCC(N(C)C)CC2)CC1` (stereo not given) belongs 1100 nM; to `COc1ccccc1CNc1ncc(C(=O)NCCCO)c(NC2CCCC2)n1`, 10000 nM.
Molecule `CN1CCC(NC(=O)c2cnc(Nc3cc(Cl)cc(Cl)c3)nc2NC2CCOCC2)CC1` had an IC50 of 1200 nM.
With `CN1CCC(NC(=O)c2cnc(NCc3cc(Cl)ccc3Cl)nc2NC2CCCC2)CC1` the figure was 1200 nM; with `O[C@@H]1COC[C@H]1Nc1nc(Nc2cc(Cl)cc(Cl)c2)ncc1-c1cccnc1`, 3000 nM; with `Cc1cc(-c2cnc(Nc3cc(Cl)cc(Cl)c3)nc2NC2CCC(N(C)C)CC2)on1` (stereo not given), 1000 nM.
In turn, `COc1ccccc1CNc1ncc(C(=O)NC2CCN(C)CC2)c(NC2CCCC2)n1` came in with a concentration for half-maximal inhibition (IC50) of 1500 nM.
To `COc1ccccc1CNc1ncc(C(=O)NCCCN2CCCC2=O)c(NC2CCCC2)n1` belongs 17000 nM; to `CN1CCC(NC(=O)c2cnc(Nc3cc(Cl)cc(Cl)c3)nc2N[C@@H]2COC[C@H]2O)CC1`, 2200 nM; to `CN1CCC(NC(=O)c2cnc(Nc3cc(Cl)cc(Cl)c3)nc2NC2CCC(N(C)C)CC2)CC1` (stereo not given), 400 nM.
The molecule `O=C(NCCCN1CCCC1=O)c1cnc(NCc2cc(Cl)ccc2Cl)nc1NC1CCCC1` returned an IC50 of 3100 nM.
With `O=C(NCCCN1CCOC1=O)c1cnc(NCc2cc(Cl)ccc2Cl)nc1NC1CCCC1` the figure was 7400 nM; with `O[C@@H]1COC[C@H]1Nc1nc(Nc2cc(Cl)cc(Cl)c2)ncc1-c1ccc(F)cc1`, over 80000 nM.
